The test system of this experiment is 521955-158-R2-J5-PDC complex spheroid viability. Kind of experiment: Anticancer human tumor 521955-158-R2-J5-PDC patient-derived pancreatic carcinoma cell line growth inhibition [GQUAD]. Particulars: for viability, T/C: stronger effect = lower value. The source says: DNA G-quadruplex Stabilizer Agents in Combinations in Complex Spheroids
A high-throughput screen of multi-cell type tumor spheroids was designed to identify active combinations of DNA G-quadruplex stabilizer agents and targeted small molecules. Complex spheroids include a stromal component modeled by human endothelial cells (HUVEC) and fibroblasts modeled by human mesenchymal stem cells (MSCs). The concentration ranges selected for each drug and investigational agent were based upon clinically achievable concentrations if the clinical Cmax of the agent was known.
Compounds. The drugs and investigational agents: pidnarulex (CX-5461; NSC782164), APTO-253 (NSC789042), BRACO-19 (NSC847499), peposertib (NSC802822), ceralasertib (NSC780249), elimusertib (NSC800525), camonsertib (NSC841442), AZD-1390 (NSC803789), olaparib (NSC753686), talazoparib (NSC767125), ART-558 (NSC835418), sotorasib (NSC818433), MRTX-1133 (NSC836407), SN-38 (NSC673596), topotecan (NSC609699), etoposide (NSC141540), doxorubicin (NSC123127), gemcitabine (NSC613327), 5-fluorouracil (NSC19893), paclitaxel (NSC125973), vemurafenib (NSC761431), panobinostat (NSC761190), R-306465 (JNJ-16241199; NSC773264), adavosertib (NSC754352), TP-3654 (NSC805149), carboplatin (NSC241240), KSQ-4279 (NSC840948), and staurosporine (NSC755774) were obtained from the National Cancer Institute (NCI) Developmental Therapeutics Program Chemical Repository (34). The FDA-approved anticancer drug set is available from the NCI Developmental Therapeutics Program. […] The stock solutions were prepared in dimethyl sulfoxide (DMSO, Sigma-Aldrich, St. Louis, MO, cat. D2650) at 800-fold the tested concentration and stored at -70 degrees C prior to their use. All drugs and investigational agents were tested over a range starting from a high concentration at or near the clinical Cmax and decreasing in half-log increments. If the clinical Cmax for an agent had not been determined, the highest concentration tested was 10 microM.
2.3 Cell Culture. All cells were maintained in an incubator at 37 degrees C and 5% CO2 with 95% humidity. The PDC lines were cultured according to standard operating procedures established by the NCI PDMR. All PDCs were thawed and cultured in Matrigel-coated flasks prepared with a working solution of 1X Ham's F-12 nutrient mix, without supplementation (Invitrogen, cat. 11765054), 100 U/mL penicillin-streptomycin (Invitrogen, cat. 15140122), and 2.5% Matrigel (Corning Inc., cat. 354248) for the first three passages. The 857933-349-R-J2-PDC line was cultured in 6C/Colon 1B media, which includes advanced DMEM/F-12 (Thermo Fisher Scientific, cat. 12634028), 10 mM HEPES (Thermo Fisher Scientific, cat. 15630080), 1X GlutaMAX supplement (Thermo Fisher Scientific, cat. 35050061), 0.1 mg/mL primocin (InvivoGen, cat. ant-pm-2), 10% defined fetal bovine serum, heat inactivated (HyClone Laboratories Inc., cat. SH30070.03HI), 50% L-WRN conditioned media (ATCC, cat. CRL-3276), 1.25 mM N-Acetyl-L-cysteine (Sigma-Aldrich, cat. A9165), 10 mM nicotinamide (Sigma-Aldrich, cat. N0636), 1X B-27 supplement (Thermo Fisher Scientific, cat. 17504044), 1X N-2 supplement (Thermo Fisher Scientific, cat. 17502048), 10 microM Y-27632 dihydrochloride (Tocris Bioscience, cat. 1254), and 50 ng/mL human EGF recombinant protein (Thermo Fisher Scientific, cat. PHG0311). The 485176-168-R4-J1-PDC line was cultured in Panc media, which includes all 6C/Colon 1B media components plus 100 ng/mL human FGF-10 (Thermo Fisher Scientific, cat. 100-26), 500 nM SB-431542 (Selleckchem, cat. S1067), and gastrin (Tocris, cat. 3006).
[…]

9 molecules from PubChem BioAssay AID2060495 (Molecular Pharmacology Branch, DTP, NCI, 2025) can be followed below.

“And” between values parts separate entries of the source, which are not always exact repeats. Equal values may be shown once. Bounds are passed on as bounds.
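Note: spheroids exposed to agents for one week before reading.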

The viability, T/C is the result in the treated group divided by that in the control group, in per cent. A word on the IC50: it is the point on the concentration scale where inhibition reaches its midpoint. For the molecule `CN(C)c1ccc(Nc2c3ccc(NC(=O)CCN4CCCC4)cc3nc3cc(NC(=O)CCN4CCCC4)ccc23)cc1`, the viability, T/C (compound 0.0316 µM) was 107% [middle of 12 runs]; the viability, T/C (compound 0.1 µM) was 103% [middle of 12 runs]; the viability, T/C (compound 0.316 µM) was 98% [middle of 12 runs]; the viability, T/C (compound 1 µM) is 89.4% [middle of 12 runs]; the viability, T/C (compound 3.16 µM) was 82.5% [middle of 12 runs]; the viability, T/C (compound 10 µM) was 72.5% [middle of 12 runs]. Moreover, the IC50 (compound alone, run of 04/22/2024) is greater than 10000 nM.

For the molecule `C=CC(=O)N1CCN(c2nc(=O)n(-c3c(C)ccnc3C(C)C)c3nc(-c4c(O)cccc4F)c(F)cc23)C(C)C1` (configuration not stated), the viability, T/C is, setting by setting: (compound 0.0316 µM) 86.9% and 107% and 102%; (compound 0.1 µM) 95.5% and 94.6% and 97.9%; (compound 0.316 µM) 84.9% and 115% and 119%; (compound 1 µM) 110% and 98.3% and 102%; (compound 3.16 µM) 109% and 115% and 123%; (compound 10 µM) 91% and 91.9% and 80.9%. Further, the half-maximal inhibitory concentration (IC50) (curve of compound) was greater than 10000 nM.

`COc1ccc([C@@H](O)c2cc(-c3ncnc4cc(N5CCOCC5)ccc34)c(F)cc2Cl)nn1`: the viability, T/C runs as follows: (compound 0.0316 µM) 88.1% and 109% and 104%; (compound 0.1 µM) 87% and 96.8% and 88.3%; (compound 0.316 µM) 83.3% and 97% and 86.6%; (compound 1 µM) 63.6% and 77.3% and 58.9%; (compound 3.16 µM) 50.2% and 64.8% and 50.8%; (compound 10 µM) 38% and 42.1% and 40.9%. Also, the IC50 (curve of compound) is 2810 nM and 6670 nM and 2890 nM.

For `Cn1ncnc1[C@H]1c2n[nH]c(=O)c3cc(F)cc(c23)N[C@@H]1c1ccc(F)cc1`, the viability, T/C reads like this: (compound 0.000999 µM) 94.9% and 94.7% and 84.8%; (compound 0.00316 µM) 81.5% and 95.2% and 80.6%; (compound 0.00999 µM) 92.4% and 99.2% and 79.1%; (compound 0.0316 µM) 78.9% and 94.1% and 78.3%; (compound 0.0999 µM) 86.8% and 89.5% and 85.8%; (compound 0.316 µM) 60.1% and 87.9% and 72.1%. Further, the IC50 (curve of compound) was greater than 316 nM.

On to `C#Cc1c(F)ccc2cc(O)cc(-c3ncc4c(N5CC6CCC(C5)N6)nc(OCC56CCCN5CC(F)C6)nc4c3F)c12` (configuration not stated), for which the viability, T/C is 40.9% and 72.8% and 65.6% (compound 0.0316 µM); 32.6% and 85% and 56.9% (compound 0.1 µM); 31.2% and 57.2% and 57.9% (compound 0.316 µM); 24.3% and 54.7% and 39.5% (compound 1 µM); 27.9% and 53.1% and 48.7% (compound 3.16 µM); 17.8% and 37.3% and 35.5% (compound 10 µM).

As for `Cc1[nH]c2ccccc2c1CCNCc1ccc(/C=C/C(=O)NO)cc1`, the viability, T/C by setting is: (compound 0.000999 µM) 110% and 125% and 100%; (compound 0.00316 µM) 103% and 117% and 100%; (compound 0.00999 µM) 139% and 135% and 112%; (compound 0.0316 µM) 103% and 110% and 102%; (compound 0.0999 µM) 55.7% and 53.2% and 51%; (compound 0.316 µM) 20.8% and 22.1% and 11.1%. Moreover, where the note is “curve of compound”, the half-maximal inhibitory concentration (IC50) is 118 nM and 111 nM and 103 nM.

For the molecule `CC(C)(O)C1CCC(Nc2ccc3ncc(-c4cccc(C(F)(F)F)c4)n3n2)CC1` (configuration not stated), the viability, T/C by setting is: (compound 0.0316 µM) 120% and 105% and 102%; (compound 0.1 µM) 109% and 101% and 81.3%; (compound 0.316 µM) 107% and 114% and 115%; (compound 1 µM) 110% and 112% and 125%; (compound 3.16 µM) 15.4% and 16.3% and 6.66%; (compound 10 µM) 18.2% and 18% and 8.13%. Further, the IC50 (curve of compound) is 2100 nM and 2090 nM and 1920 nM.

As to `CC1COCCN1c1cc(C2(S(C)(=N)=O)CC2)nc(-c2ccnc3[nH]ccc23)n1` (configuration not stated), the viability, T/C by setting is: (compound 0.0316 µM) 109% and 97.3% and 99.7%; (compound 0.1 µM) 100% and 91% and 89.6%; (compound 0.316 µM) 97.3% and 109% and 127%; (compound 1 µM) 28% and 45.5% and 25.8%; (compound 3.16 µM) 9.05% and 14.9% and 6.37%; (compound 10 µM) 11.1% and 16.7% and 11.6%. The half-inhibitory concentration (IC50) (curve of compound) is 693 nM and 909 nM and 705 nM.

Turning to `CC(=O)O[C@H]1C(=O)[C@@]2(C)[C@H]([C@H](OC(=O)c3ccccc3)[C@]3(O)C[C@H](OC(=O)[C@H](O)[C@@H](NC(=O)c4ccccc4)c4ccccc4)C(C)=C1C3(C)C)[C@]1(OC(C)=O)CO[C@@H]1C[C@@H]2O` + CN(C)c1ccc(Nc2c3ccc(NC(=O)CCN4CCCC4)cc3nc3cc(NC(=O)CCN4CCCC4)ccc23)cc1, the half-inhibitory concentration (IC50) is less than 31.6 nM (curve of first compound, second compound 0.0316 µM); 44.8 nM (curve of first compound, second compound 0.1 µM); less than 31.6 nM (curve of first compound, second compound 0.316 µM); less than 31.6 nM (curve of first compound, second compound 1 µM); 31.7 nM (curve of first compound, second compound 3.16 µM); less than 31.6 nM (curve of first compound, second compound 10 µM). For the same molecule, the viability, T/C is 46.1% (second compound 0.0316 µM, first compound 0.0316 µM); 40.9% (second compound 0.0316 µM, first compound 0.1 µM); 35.2% (second compound 0.0316 µM, first compound 0.316 µM); 32.3% (second compound 0.0316 µM, first compound 1 µM); 27.5% (second compound 0.0316 µM, first compound 3.16 µM); 34.7% (second compound 0.0316 µM, first compound 10 µM). For the same molecule, the viability, T/C by setting is: (second compound 0.1 µM, first compound 0.0316 µM) 55.7%; (second compound 0.1 µM, first compound 0.1 µM) 37.6%; (second compound 0.1 µM, first compound 0.316 µM) 30.8%; (second compound 0.1 µM, first compound 1 µM) 23%; (second compound 0.1 µM, first compound 3.16 µM) 33.9%; (second compound 0.1 µM, first compound 10 µM) 29.9%. Besides, the viability, T/C by setting is: (second compound 0.316 µM, first compound 0.0316 µM) 47.7%; (second compound 0.316 µM, first compound 0.1 µM) 34.1%; (second compound 0.316 µM, first compound 0.316 µM) 28%; (second compound 0.316 µM, first compound 1 µM) 22.7%; (second compound 0.316 µM, first compound 3.16 µM) 29.4%; (second compound 0.316 µM, first compound 10 µM) 33.1%. Moreover, the viability, T/C runs as follows: (second compound 1 µM, first compound 0.0316 µM) 54.6%; (second compound 1 µM, first compound 0.1 µM) 33%; (second compound 1 µM, first compound 0.316 µM) 28.3%; (second compound 1 µM, first compound 1 µM) 33.9%; (second compound 1 µM, first compound 3.16 µM) 39.4%; (second compound 1 µM, first compound 10 µM) 38.5%. In addition, the viability, T/C reads like this: (second compound 3.16 µM, first compound 0.0316 µM) 50%; (second compound 3.16 µM, first compound 0.1 µM) 31.1%; (second compound 3.16 µM, first compound 0.316 µM) 30.3%; (second compound 3.16 µM, first compound 1 µM) 31.5%; (second compound 3.16 µM, first compound 3.16 µM) 33.4%; (second compound 3.16 µM, first compound 10 µM) 42%. Further, the viability, T/C reads like this: (second compound 10 µM, first compound 0.0316 µM) 50.9%; (second compound 10 µM, first compound 0.1 µM) 35.2%; (second compound 10 µM, first compound 0.316 µM) 36.4%; (second compound 10 µM, first compound 1 µM) 27.8%; (second compound 10 µM, first compound 3.16 µM) 29.9%; (second compound 10 µM, first compound 10 µM) 35.2%.
